Target: T1, AMPA (GluR1) receptor (Homo sapiens, UniProt P42261)
T1 construct: expressed in transfected cells; host or cells: HEK cells (HEK.GluR1(i)), kept under hygromycin selection
Assay: Ca2+ influx fluorescence assay (FLEXstation, Fluo-3) in HEK.GluR1(i) cells
Format: cell-based
Conditions: glutamate +/- test compound, read-out: EC50, positive modulation of the AMPA receptor
Text: The compounds in this invention may be tested using a biological assay which measures Ca^2+ influx mediated through positive modulation of the AMPA (GluR1) receptor using standard techniques in the art such as, but not limited to, a FLEXstation (manufactured by Molecular Devices, Sunnyvale, Calif.). An optical readout using fluorescent probes is employed to measure ion channel dependent changes in intracellular ion concentration or membrane potential. The assay utilises the Ca^2+ conductance of functional homomeric GluR1(i) AMPA receptors to generate glutamate-dependent Ca^2+ responses. Influx of Ca^2+ through the ion channel is measured indirectly through an increase in intracellular Ca^2+ levels using the calcium sensitive dye such as, but not limited to, Fluo-3 (Molecular Devices, Sunnyvale, Calif.) in FLEXstation. A positive AMPA receptor modulator, in the presence of glutamate, will result in an influx of Ca^2+ through the ion channel which can be measured indirectly through an increase in intracellular Ca2+ levels using the calcium sensitive dye Fluo-3 in FLEXstation.
HEK.GluR1(i) cells were maintained in DMEM supplemented with 10% fetaclone II, 1% non-essential amino acids and 150 μg/mL hygromycin, at 37° C./5% CO2. […]

T1 sequence (P42261 19-906 isoform P42261-2 limits assumed, species assumed): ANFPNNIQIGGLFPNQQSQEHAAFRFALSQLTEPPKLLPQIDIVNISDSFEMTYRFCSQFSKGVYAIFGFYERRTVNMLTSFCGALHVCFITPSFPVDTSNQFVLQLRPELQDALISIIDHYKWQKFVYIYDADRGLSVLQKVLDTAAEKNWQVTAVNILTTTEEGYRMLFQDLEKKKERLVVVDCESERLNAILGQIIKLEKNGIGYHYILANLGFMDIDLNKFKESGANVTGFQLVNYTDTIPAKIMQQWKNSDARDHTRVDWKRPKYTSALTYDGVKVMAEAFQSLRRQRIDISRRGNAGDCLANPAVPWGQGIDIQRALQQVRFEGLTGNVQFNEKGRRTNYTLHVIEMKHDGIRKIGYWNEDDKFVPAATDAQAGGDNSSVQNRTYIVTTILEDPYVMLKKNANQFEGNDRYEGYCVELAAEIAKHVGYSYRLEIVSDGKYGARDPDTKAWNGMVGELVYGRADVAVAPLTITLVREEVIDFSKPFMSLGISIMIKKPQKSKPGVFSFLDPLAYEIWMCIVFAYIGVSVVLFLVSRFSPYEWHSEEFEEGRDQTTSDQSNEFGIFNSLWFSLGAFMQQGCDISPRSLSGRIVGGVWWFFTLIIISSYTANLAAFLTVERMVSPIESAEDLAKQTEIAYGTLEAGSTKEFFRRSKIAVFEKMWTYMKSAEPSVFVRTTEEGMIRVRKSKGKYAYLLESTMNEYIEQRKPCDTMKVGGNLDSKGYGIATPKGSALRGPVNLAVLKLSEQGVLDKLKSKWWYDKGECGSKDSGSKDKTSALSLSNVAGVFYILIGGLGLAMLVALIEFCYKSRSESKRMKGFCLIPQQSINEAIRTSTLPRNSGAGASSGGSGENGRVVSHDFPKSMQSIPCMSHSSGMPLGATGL

- EC50: 2300 nM
Compound: CC(C)S(=O)(=O)N[C@H]1Cc2ccc(Oc3cccc(C(F)(F)F)c3)cc2C1 [Example 9, (S)-N-(5-(3-(trifluoromethyl)phenoxy)-2,3-dihydro-1H-inden-2-yl)propane-2-sulfonamide]
